ChEMBL document CHEMBL1201862, “PubChem BioAssay data set” (2004)
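Five concentrations, 48 hours, 96-well plates. GI50 is the concentration that inhibits growth by half.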 Active and inactive are the calls of the source. Rule as the data show it: active = GI50 up to about 1.1 µM and inactive = higher.

Tests used:
Assay in all cases: inhibition of tumour cell growth, NCI panel, 48 h
[1] = system: BT-549
[2] = system: OVCAR-3
[3] = system: DU-145
[4] = system: HCT-15
[5] = system: ACHN
[6] = system: MCF7
[7] = system: IGROV-1
[8] = system: SW-620
[9] = system: UACC-62
[10] = system: UACC-257
[11] = system: SF-268
[12] = system: A498
[13] = system: CAKI-1
[14] = system: MOLT-4
[15] = system: OVCAR-4
[16] = system: SN12C
[17] = system: MDA-MB-435
[18] = system: LOX IMVI
[19] = system: HT-29
[20] = system: PC-3
[21] = system: U-251
[22] = system: NCI-H460
[23] = system: SR
[24] = system: MDA-N
[25] = system: MDA-MB-231
[26] = system: SF-539
[27] = system: COLO 205
[28] = system: SK-OV-3
[29] = system: HCT-116
[30] = system: NCI-H23
[31] = system: TK-10
[32] = system: SNB-19
[33] = system: SK-MEL-2
[34] = system: 786-0
[35] = system: K562
[36] = system: RXF 393
[37] = system: M14
[38] = system: T47D
[39] = system: HOP-92
[40] = system: UO-31
[41] = system: HL-60
[42] = system: KM12
[43] = system: NCI-H226
[44] = system: SF-295
[45] = system: A549
[46] = system: RPMI-8226
[47] = system: NCI/ADR-RES
[48] = system: OVCAR-5
[49] = system: HOP-62
[50] = system: SK-MEL-5
[51] = system: NCI-H522
[52] = system: SNB-75
[53] = system: EKVX
[54] = system: OVCAR-8
[55] = system: SK-MEL-28
[56] = system: Malme-3M
[57] = system: HCC 2998
[58] = system: Hs-578T
[59] = system: CCRF-CEM

## FC(F)(F)c1n[nH]c(SCc2ccc(Cl)cc2)n1
[1]
  GI50: > 100 µM (inactive)
[2]
  GI50: > 100 µM (inactive)
[3]
  GI50: > 100 µM (inactive)
[4]
  GI50: > 100 µM
[5]
  GI50: > 100 µM (inactive)
[6]
  GI50: > 100 µM (inactive)
[7]
  GI50: > 100 µM (inactive)
[8]
  GI50: > 100 µM (inactive)
[9]
  GI50: > 100 µM (inactive)
[10]
  GI50: > 100 µM (inactive)
[11]
  GI50: > 100 µM (inactive)
[12]
  GI50: > 100 µM (inactive)
[13]
  GI50: > 100 µM (inactive)
[14]
  GI50: > 100 µM (inactive)
[15]
  GI50: > 100 µM (inactive)
[16]
  GI50: > 100 µM (inactive)
[17]
  GI50: > 100 µM (inactive)
[18]
  GI50: > 100 µM (inactive)
[19]
  GI50: > 100 µM (inactive)
[20]
  GI50: > 100 µM (inactive)
[21]
  GI50: > 100 µM (inactive)
[22]
  GI50: > 100 µM (inactive)
[23]
  GI50: > 100 µM (inactive)
[24]
  GI50: > 100 µM (inactive)
[25]
  GI50: > 100 µM (inactive)
[26]
  GI50: > 100 µM (inactive)
[27]
  GI50: > 100 µM (inactive)
[28]
  GI50: > 100 µM (inactive)
[29]
  GI50: > 100 µM (inactive)
[30]
  GI50: > 100 µM (inactive)
[31]
  GI50: > 100 µM (inactive)
[32]
  GI50: > 100 µM (inactive)
[33]
  GI50: > 100 µM (inactive)
[34]
  GI50: > 100 µM (inactive)
[35]
  GI50: > 100 µM (inactive)
[36]
  GI50: > 100 µM (inactive)
[37]
  GI50: > 100 µM (inactive)
[38]
  GI50: > 100 µM (inactive)
[39]
  GI50: > 100 µM (inactive)
[40]
  GI50: 59.4 µM (inactive)
[41]
  GI50: > 100 µM (inactive)
[42]
  GI50: > 100 µM (inactive)
[43]
  GI50: > 100 µM (inactive)
[44]
  GI50: > 100 µM (inactive)
[45]
  GI50: > 100 µM (inactive)
[46]
  GI50: > 100 µM (inactive)
[47]
  GI50: > 100 µM (inactive)
[48]
  GI50: > 100 µM (inactive)
[49]
  GI50: > 100 µM (inactive)
[50]
  GI50: > 100 µM (inactive)
[51]
  GI50: > 100 µM (inactive)
[52]
  GI50: > 100 µM (inactive)
[53]
  GI50: > 100 µM (inactive)
[54]
  GI50: > 100 µM (inactive)
[55]
  GI50: > 100 µM (inactive)
[56]
  GI50: > 100 µM (inactive)
[57]
  GI50: > 100 µM (inactive)
[58]
  GI50: 94.8 µM (inactive)

## Cc1ccc2c(c1)C(=O)C1(C2)Cc2c(C)cccc2C1=O (centres undefined)
[1]
  GI50: > 100 µM (inactive)
[2]
  GI50: > 100 µM (inactive)
[3]
  GI50: > 100 µM (inactive)
[4]
  GI50: > 100 µM
[5]
  GI50: > 100 µM (inactive)
[6]
  GI50: > 100 µM (inactive)
[7]
  GI50: > 100 µM (inactive)
[8]
  GI50: > 100 µM (inactive)
[9]
  GI50: > 100 µM (inactive)
[10]
  GI50: > 100 µM (inactive)
[11]
  GI50: > 100 µM (inactive)
[12]
  GI50: > 100 µM (inactive)
[13]
  GI50: > 100 µM (inactive)
[14]
  GI50: > 100 µM (inactive)
[15]
  GI50: > 100 µM (inactive)
[16]
  GI50: > 100 µM (inactive)
[17]
  GI50: > 100 µM (inactive)
[18]
  GI50: > 100 µM (inactive)
[19]
  GI50: > 100 µM (inactive)
[20]
  GI50: > 100 µM (inactive)
[21]
  GI50: > 100 µM (inactive)
[59]
  GI50: > 100 µM (inactive)
[22]
  GI50: > 100 µM (inactive)
[23]
  GI50: > 100 µM (inactive)
[24]
  GI50: > 100 µM (inactive)
[25]
  GI50: > 100 µM (inactive)
[26]
  GI50: > 100 µM (inactive)
[27]
  GI50: > 100 µM (inactive)
[28]
  GI50: > 100 µM (inactive)
[29]
  GI50: > 100 µM (inactive)
[30]
  GI50: > 100 µM (inactive)
[31]
  GI50: > 100 µM (inactive)
[32]
  GI50: > 100 µM (inactive)
[34]
  GI50: > 100 µM (inactive)
[35]
  GI50: > 100 µM (inactive)
[36]
  GI50: > 100 µM (inactive)
[37]
  GI50: > 100 µM (inactive)
[38]
  GI50: > 100 µM (inactive)
[39]
  GI50: > 100 µM (inactive)
[40]
  GI50: > 100 µM (inactive)
[41]
  GI50: > 100 µM (inactive)
[42]
  GI50: > 100 µM (inactive)
[43]
  GI50: > 100 µM (inactive)
[44]
  GI50: > 100 µM (inactive)
[45]
  GI50: > 100 µM (inactive)
[46]
  GI50: > 100 µM (inactive)
[47]
  GI50: > 100 µM (inactive)
[48]
  GI50: > 100 µM (inactive)
[49]
  GI50: > 100 µM (inactive)
[50]
  GI50: > 100 µM (inactive)
[51]
  GI50: > 100 µM (inactive)
[52]
  GI50: > 100 µM (inactive)
[53]
  GI50: > 100 µM (inactive)
[54]
  GI50: > 100 µM (inactive)
[55]
  GI50: > 100 µM (inactive)
[56]
  GI50: > 100 µM (inactive)
[57]
  GI50: > 100 µM (inactive)
[58]
  GI50: > 100 µM (inactive)

## C[C@]12CC[C@H]3[C@@H](CC=C4C[C@@H](N5CCCC5)CC[C@@]43C)[C@@H]1C[C@H](N1CCOCC1)[C@@H]2O
[1]
  GI50: > 100 µM (inactive)
[2]
  GI50: > 100 µM (inactive)
[3]
  GI50: > 100 µM (inactive)
[4]
  GI50: > 100 µM
[5]
  GI50: > 100 µM (inactive)
[6]
  GI50: > 10 µM (inactive)
[7]
  GI50: > 100 µM (inactive)
[8]
  GI50: > 100 µM (inactive)
[9]
  GI50: > 100 µM (inactive)
[10]
  GI50: > 100 µM (inactive)
[11]
  GI50: > 100 µM (inactive)
[12]
  GI50: > 100 µM (inactive)
[13]
  GI50: > 100 µM (inactive)
[14]
  GI50: > 100 µM (inactive)
[15]
  GI50: > 100 µM (inactive)
[16]
  GI50: > 100 µM (inactive)
[17]
  GI50: 61.2 µM (inactive)
[18]
  GI50: > 10 µM (inactive)
[19]
  GI50: 44.5 µM (inactive)
[20]
  GI50: > 100 µM (inactive)
[21]
  GI50: > 100 µM (inactive)
[59]
  GI50: > 100 µM (inactive)
[22]
  GI50: > 100 µM (inactive)
[23]
  GI50: 23.4 µM (inactive)
[24]
  GI50: > 100 µM (inactive)
[25]
  GI50: > 100 µM (inactive)
[26]
  GI50: > 100 µM (inactive)
[27]
  GI50: > 100 µM (inactive)
[28]
  GI50: > 100 µM (inactive)
[29]
  GI50: > 100 µM (inactive)
[30]
  GI50: > 100 µM (inactive)
[31]
  GI50: > 100 µM (inactive)
[32]
  GI50: > 100 µM (inactive)
[34]
  GI50: > 100 µM (inactive)
[35]
  GI50: 22.5 µM (inactive)
[36]
  GI50: > 100 µM (inactive)
[37]
  GI50: > 10 µM (inactive)
[38]
  GI50: > 100 µM (inactive)
[39]
  GI50: > 100 µM (inactive)
[40]
  GI50: > 100 µM (inactive)
[41]
  GI50: 98.4 µM (inactive)
[42]
  GI50: > 100 µM (inactive)
[43]
  GI50: > 100 µM (inactive)
[44]
  GI50: > 100 µM (inactive)
[45]
  GI50: > 100 µM (inactive)
[46]
  GI50: > 100 µM (inactive)
[47]
  GI50: > 100 µM (inactive)
[48]
  GI50: > 100 µM (inactive)
[49]
  GI50: > 100 µM (inactive)
[50]
  GI50: > 100 µM (inactive)
[51]
  GI50: > 100 µM (inactive)
[52]
  GI50: > 100 µM (inactive)
[53]
  GI50: > 100 µM (inactive)
[54]
  GI50: > 100 µM (inactive)
[55]
  GI50: > 100 µM (inactive)
[56]
  GI50: > 100 µM (inactive)
[57]
  GI50: > 100 µM (inactive)
[58]
  GI50: > 100 µM (inactive)
